Measured values from PubChem BioAssay AID1963443 (Molecular Pharmacology Branch, DTP, NCI, 2024).
Each block holds one molecule with its values, some of them ahead of it.

Test system: MDA-MB-231 complex spheroids, growth inhibition
Test: Anticancer human tumor MDA-MB-231 cell line growth inhibition [Asc];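 note: spheroids exposed to compounds for 7 days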
Conditions: for IC50: curve of first compound; for viability, T/C: stronger effect = lower value
Procedure, shortened: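 Complex spheroids combining tumor cells with HUVEC endothelial cells and human MSCs, at 37 degrees C, 5% CO2; agents tested alone or combined, half-log dilutions from at or near clinical Cmax, or 10 microM if Cmax unknown.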

[1] = second compound 0.1 µM, first compound 0.00316 µM
[2] = second compound 0.1 µM, first compound 0.01 µM
[3] = second compound 0.1 µM, first compound 0.0316 µM
[4] = second compound 0.1 µM, first compound 0.1 µM
[5] = second compound 0.1 µM, first compound 0.316 µM
[6] = second compound 0.1 µM, first compound 1 µM
[7] = second compound 0.316 µM, first compound 0.00316 µM
[8] = second compound 0.316 µM, first compound 0.01 µM
[9] = second compound 0.316 µM, first compound 0.0316 µM
[10] = second compound 0.316 µM, first compound 0.1 µM
[11] = second compound 0.316 µM, first compound 0.316 µM
[12] = second compound 0.316 µM, first compound 1 µM
[13] = second compound 1 µM, first compound 0.00316 µM
[14] = second compound 1 µM, first compound 0.01 µM
[15] = second compound 1 µM, first compound 0.0316 µM
[16] = second compound 1 µM, first compound 0.1 µM
[17] = second compound 1 µM, first compound 0.316 µM
[18] = second compound 1 µM, first compound 1 µM
[19] = second compound 3.16 µM, first compound 0.00316 µM
[20] = second compound 3.16 µM, first compound 0.01 µM
[21] = second compound 3.16 µM, first compound 0.0316 µM
[22] = second compound 3.16 µM, first compound 0.1 µM
[23] = second compound 3.16 µM, first compound 0.316 µM
[24] = second compound 3.16 µM, first compound 1 µM
[25] = second compound 10 µM, first compound 0.00316 µM
[26] = second compound 10 µM, first compound 0.01 µM
[27] = second compound 10 µM, first compound 0.0316 µM
[28] = second compound 10 µM, first compound 0.1 µM
[29] = second compound 10 µM, first compound 0.316 µM
[30] = second compound 10 µM, first compound 1 µM

SMILES: CCN1CCN(Cc2ccc(Nc3ncc(F)c(-c4cc(F)c5nc(C)n(C(C)C)c5c4)n3)nc2)CC1 + Cc1c(S(C)(=O)=O)c(-c2cc(F)cc(N3CCN(c4ccc(NS(=O)(=O)c5ccc(NC(CCN6CCC(C(=O)OCCCP(=O)(O)O)CC6)CSc6ccccc6)c(S(=O)(=O)C(F)(F)F)c5)cc4)CC3)c2)c(-c2ccc(Cl)cc2)n1C(C)C
IC50 (second compound 0.1 µM): 648 nM
IC50 (second compound 0.316 µM): > 1000 nM
IC50 (second compound 1 µM): 306 nM
IC50 (second compound 3.16 µM): 258 nM
IC50 (second compound 10 µM): 308 nM
viability, T/C [1]: 97.4%
viability, T/C [2]: 97.9%
viability, T/C [3]: 84%
viability, T/C [4]: 65.6%
viability, T/C [5]: 47.9%
viability, T/C [6]: 51.5%
viability, T/C [7]: 103%
viability, T/C [8]: 95.4%
viability, T/C [9]: 84.9%
viability, T/C [10]: 64.8%
viability, T/C [11]: 49.7%
viability, T/C [12]: 53.1%
viability, T/C [13]: 98.1%
viability, T/C [14]: 93.2%
viability, T/C [15]: 87.7%
viability, T/C [16]: 67.6%
viability, T/C [17]: 49.5%
viability, T/C [18]: 42.1%
viability, T/C [19]: 95.9%
viability, T/C [20]: 91.9%
viability, T/C [21]: 83.8%
viability, T/C [22]: 63.8%
viability, T/C [23]: 47.7%
viability, T/C [24]: 36.5%
viability, T/C [25]: 104%
viability, T/C [26]: 97.7%
viability, T/C [27]: 93.6%
viability, T/C [28]: 76.9%
viability, T/C [29]: 48.7%
viability, T/C [30]: 32.2%

SMILES: NC1CCC(NC2CC2c2ccccc2)CC1 (stereo not given) + Cc1c(S(C)(=O)=O)c(-c2cc(F)cc(N3CCN(c4ccc(NS(=O)(=O)c5ccc(NC(CCN6CCC(C(=O)OCCCP(=O)(O)O)CC6)CSc6ccccc6)c(S(=O)(=O)C(F)(F)F)c5)cc4)CC3)c2)c(-c2ccc(Cl)cc2)n1C(C)C
IC50 (second compound 0.1 µM): > 100 nM
IC50 (second compound 0.316 µM): > 100 nM
IC50 (second compound 1 µM): > 100 nM
IC50 (second compound 3.16 µM): > 100 nM
IC50 (second compound 10 µM): > 100 nM
viability, T/C (second compound 0.1 µM, first compound 0.000316 µM): 102%
viability, T/C (second compound 0.1 µM, first compound 0.001 µM): 98.7%
viability, T/C [1]: 104%
viability, T/C [2]: 99.1%
viability, T/C [3]: 92.5%
viability, T/C [4]: 103%
viability, T/C (second compound 0.316 µM, first compound 0.000316 µM): 104%
viability, T/C (second compound 0.316 µM, first compound 0.001 µM): 103%
viability, T/C [7]: 106%
viability, T/C [8]: 104%
viability, T/C [9]: 105%
viability, T/C [10]: 103%
viability, T/C (second compound 1 µM, first compound 0.000316 µM): 96.1%
viability, T/C (second compound 1 µM, first compound 0.001 µM): 106%
viability, T/C [13]: 103%
viability, T/C [14]: 108%
viability, T/C [15]: 105%
viability, T/C [16]: 102%
viability, T/C (second compound 3.16 µM, first compound 0.000316 µM): 93.3%
viability, T/C (second compound 3.16 µM, first compound 0.001 µM): 94.2%
viability, T/C [19]: 99.5%
viability, T/C [20]: 90.8%
viability, T/C [21]: 93.2%
viability, T/C [22]: 94.7%
viability, T/C (second compound 10 µM, first compound 0.000316 µM): 101%
viability, T/C (second compound 10 µM, first compound 0.001 µM): 100%
viability, T/C [25]: 101%
viability, T/C [26]: 101%
viability, T/C [27]: 96.6%
viability, T/C [28]: 94.1%

These reach a lower IC50 (second compound 0.1 µM). Values come first.

IC50 (second compound 0.1 µM): 95.4 nM
IC50 (second compound 0.316 µM): 72.9 nM
IC50 (second compound 1 µM): 64.2 nM
IC50 (second compound 3.16 µM): 44.5 nM
IC50 (second compound 10 µM): 49 nM
SMILES: COc1c(OCCCN2CCOCC2)ccc2c3n(c(=NC(=O)c4cnc(N)nc4)nc12)CCN3 + Cc1c(S(C)(=O)=O)c(-c2cc(F)cc(N3CCN(c4ccc(NS(=O)(=O)c5ccc(NC(CCN6CCC(C(=O)OCCCP(=O)(O)O)CC6)CSc6ccccc6)c(S(=O)(=O)C(F)(F)F)c5)cc4)CC3)c2)c(-c2ccc(Cl)cc2)n1C(C)C
viability, T/C [1]: 85.8%
viability, T/C [2]: 85.2%
viability, T/C [3]: 67.7%
viability, T/C [4]: 49.3%
viability, T/C [5]: 31.3%
viability, T/C [6]: 20.1%
viability, T/C [7]: 94.6%
viability, T/C [8]: 81.1%
viability, T/C [9]: 63%
viability, T/C [10]: 47%
viability, T/C [11]: 24.3%
viability, T/C [12]: 12.1%
viability, T/C [13]: 94.8%
viability, T/C [14]: 85.1%
viability, T/C [15]: 66%
viability, T/C [16]: 40.8%
viability, T/C [17]: 17.6%
viability, T/C [18]: 8.74%
viability, T/C [19]: 88.1%
viability, T/C [20]: 84.2%
viability, T/C [21]: 54.6%
viability, T/C [22]: 32.8%
viability, T/C [23]: 12.1%
viability, T/C [24]: 5.37%
viability, T/C [25]: 90.3%
viability, T/C [26]: 85.1%
viability, T/C [27]: 59.8%
viability, T/C [28]: 32.5%
viability, T/C [29]: 10.2%
viability, T/C [30]: 3.64%

IC50 (second compound 0.1 µM): 63.4 nM
IC50 (second compound 0.316 µM): 56.5 nM
IC50 (second compound 1 µM): 50.8 nM
IC50 (second compound 3.16 µM): 38.8 nM
IC50 (second compound 10 µM): 43.3 nM
SMILES: NC(=O)C(=Cn1cnc(-c2cc(C(F)(F)F)cc(C(F)(F)F)c2)n1)c1cncnc1 + Cc1c(S(C)(=O)=O)c(-c2cc(F)cc(N3CCN(c4ccc(NS(=O)(=O)c5ccc(NC(CCN6CCC(C(=O)OCCCP(=O)(O)O)CC6)CSc6ccccc6)c(S(=O)(=O)C(F)(F)F)c5)cc4)CC3)c2)c(-c2ccc(Cl)cc2)n1C(C)C
viability, T/C (second compound 0.1 µM, first compound 0.000949 µM): 100%
viability, T/C (second compound 0.1 µM, first compound 0.003 µM): 101%
viability, T/C (second compound 0.1 µM, first compound 0.00949 µM): 86.3%
viability, T/C (second compound 0.1 µM, first compound 0.03 µM): 62.6%
viability, T/C (second compound 0.1 µM, first compound 0.0949 µM): 43.7%
viability, T/C (second compound 0.1 µM, first compound 0.3 µM): 6.26%
viability, T/C (second compound 0.316 µM, first compound 0.000949 µM): 111%
viability, T/C (second compound 0.316 µM, first compound 0.003 µM): 103%
viability, T/C (second compound 0.316 µM, first compound 0.00949 µM): 89.8%
viability, T/C (second compound 0.316 µM, first compound 0.03 µM): 64.9%
viability, T/C (second compound 0.316 µM, first compound 0.0949 µM): 37.4%
viability, T/C (second compound 0.316 µM, first compound 0.3 µM): 4.18%
viability, T/C (second compound 1 µM, first compound 0.000949 µM): 104%
viability, T/C (second compound 1 µM, first compound 0.003 µM): 103%
viability, T/C (second compound 1 µM, first compound 0.00949 µM): 88.5%
viability, T/C (second compound 1 µM, first compound 0.03 µM): 67.4%
viability, T/C (second compound 1 µM, first compound 0.0949 µM): 30.2%
viability, T/C (second compound 1 µM, first compound 0.3 µM): 2.94%
viability, T/C (second compound 3.16 µM, first compound 0.000949 µM): 98.1%
viability, T/C (second compound 3.16 µM, first compound 0.003 µM): 93.7%
viability, T/C (second compound 3.16 µM, first compound 0.00949 µM): 84.4%
viability, T/C (second compound 3.16 µM, first compound 0.03 µM): 60%
viability, T/C (second compound 3.16 µM, first compound 0.0949 µM): 19.2%
viability, T/C (second compound 3.16 µM, first compound 0.3 µM): 2.31%
viability, T/C (second compound 10 µM, first compound 0.000949 µM): 105%
viability, T/C (second compound 10 µM, first compound 0.003 µM): 103%
viability, T/C (second compound 10 µM, first compound 0.00949 µM): 97.3%
viability, T/C (second compound 10 µM, first compound 0.03 µM): 68%
viability, T/C (second compound 10 µM, first compound 0.0949 µM): 12.1%
viability, T/C (second compound 10 µM, first compound 0.3 µM): 0.73%

IC50 (second compound 0.1 µM): 76.3 nM
IC50 (second compound 0.316 µM): 103 nM
IC50 (second compound 1 µM): 71.3 nM
IC50 (second compound 3.16 µM): 117 nM
IC50 (second compound 10 µM): 116 nM
SMILES: O=C(c1ccc(F)c(F)c1Nc1ccc(I)cc1F)N1CC(O)([C@@H]2CCCCN2)C1 + Cc1c(S(C)(=O)=O)c(-c2cc(F)cc(N3CCN(c4ccc(NS(=O)(=O)c5ccc(NC(CCN6CCC(C(=O)OCCCP(=O)(O)O)CC6)CSc6ccccc6)c(S(=O)(=O)C(F)(F)F)c5)cc4)CC3)c2)c(-c2ccc(Cl)cc2)n1C(C)C
viability, T/C [1]: 87.8%
viability, T/C [2]: 68.8%
viability, T/C [3]: 60.6%
viability, T/C [4]: 51.9%
viability, T/C [5]: 24.9%
viability, T/C [6]: 1.38%
viability, T/C [7]: 86.3%
viability, T/C [8]: 61.9%
viability, T/C [9]: 64.7%
viability, T/C [10]: 54.8%
viability, T/C [11]: 14.6%
viability, T/C [12]: 0.96%
viability, T/C [13]: 96.5%
viability, T/C [14]: 59.5%
viability, T/C [15]: 66.7%
viability, T/C [16]: 60.3%
viability, T/C [17]: 10.8%
viability, T/C [18]: 1.16%
viability, T/C [19]: 81.9%
viability, T/C [20]: 56.5%
viability, T/C [21]: 60.4%
viability, T/C [22]: 57.2%
viability, T/C [23]: 5.78%
viability, T/C [24]: 0.65%
viability, T/C [25]: 93.9%
viability, T/C [26]: 93.1%
viability, T/C [27]: 89%
viability, T/C [28]: 57.1%
viability, T/C [29]: 0.97%
viability, T/C [30]: 0.83%
